Laboratory results as given in publication PMC9928118, “Funneling modulatory peptide design with generative models: Discovery and characterization of disruptors of calcineurin protein-protein interactions” (PLOS Computational Biology, 2023).
Values belong to the sequence of their own block, whether it stands above or below them.

Tested on: GST-tagged Cn
Test: PEPperPRINT peptide microarray binding assay with GST-tagged Cn
Text: We then estimated in-silico the binding strength of the various peptides to Cn by template-based docking followed by flexible backbone refinement using Modeller and PepCrawler (Figs 4 and S4). In parallel, we performed a medium-throughput qualitative binding assay using a PEPperPRINT peptide microarray to evaluate the direct binding of Cn to selected peptides (Figs 4 and S5, S3 Data).
Fig 4 Medium-throughput filtering by structural modeling and microarray screening. (a) Depiction of the structural modeling protocol: after alignment to the known PxIxIT binding site, an efficient flexible backbone structure refinement algorithm is applied to estimate the docking energy. […] (c) Coefficients of the equivalent single-site model fitted by sparse linear regression, shown in weight logo representation. […] Colors indicate physical property (black = hydrophobic, red = negatively charged, etc.). (d) Per-gene distribution of docking scores across natural fragments (lower is better). […] (e) Overview of the microarray screening. Peptides are printed on the chip (two circles per peptide). After pouring of Cn and subsequent washing, fluorescent-tagged, a Cn-targeting antibody is overlaid and an image is taken. Fluorescent spots indicate strong Cn binders. (f) Scatter plot of the sequence likelihood (normalized by length, higher is better) against fluorescence level (higher is better, see Methods for details of the data analysis).
In parallel, selected peptides were tested for Cn binding on a chip microarray (PEPperPRINT). 786 peptides were printed on the chip and were incubated with GST-tagged Cn overnight at 4°C. Following extensive washing, binding was detected by applying a fluorescently labeled (Alexa-Fluor 647) GST antibody. […] The experiment was repeated five times, and Z-normalized fluorescence levels were determined following post-processing of the raw data (Methods, S5A, S5B and S5C Fig).
The peptide array was prepared as a custom array pepper chip (PEPperPRINT). For binding detection, 1mg/ml GST-tagged Cn was incubated overnight on the microarray at 4°C. Following extensive washing, fluorescently labeled (Alexa-Fluor 647) GST-antibody. […] The experiment was repeated five times. Each scan was analyzed as follows: a grid was overlaid using the border HA markers to determine regions of interest (ROI) for each peptide (two ROIs per peptide) and the logarithm of the average fluorescence intensity was computed for each ROI. […] To remove spatial artifacts, a position-dependent baseline fluorescence was fitted using a second-order polynomial, and subtracted to the fluorescence. Fluorescence levels were next averaged over the two ROI for each peptide and Z-normalized. […] The Z-scores were averaged over the five repetitions to yield one fluorescence score per peptide.

[1] = GST-tagged Cn, max over the chip locations
[2] = GST-tagged Cn, mean over the chip locations
[3] = GST-tagged Cn, max over the chip spots listed under Location on chip
[4] = GST-tagged Cn, mean over the chip spots listed under Location on chip
[5] = GST-tagged Cn, max over the spots named in Location on chip
[6] = GST-tagged Cn, mean over the spots named in Location on chip
[7] = max over the spots listed under Location on chip
[8] = mean over the spots listed under Location on chip
[9] = GST-tagged Cn, max over the spots on the chip (two locations)
[10] = GST-tagged Cn, mean over the spots on the chip (two locations)
[11] = max over the chip locations listed for the peptide (two spots)
[12] = mean over the chip locations listed for the peptide (two spots)

Chip Fluorescence (max) [1]: -0.2367
Chip Fluorescence (mean) [2]: -0.7632
Sequence: HVSSSPDITLTPTQHR [SeqRBMlowT_782]

Chip Fluorescence (max) [1]: 0.2772
Chip Fluorescence (mean) [2]: -0.7766
Sequence: HVSSSPDITVTPTQHR [SeqRBMlowT_701]

Chip Fluorescence (max) [1]: 0.3374
Chip Fluorescence (mean) [2]: -0.4706
Sequence: HVSSSPDIVITPTQHR [SeqRBMlowT_1399]

Chip Fluorescence (max) [3]: 0.8915
Chip Fluorescence (mean) [4]: -0.5849
Sequence: HVSSSPDVTLKIPQHR [SeqRBMlowT_2187]

Chip Fluorescence (max) [3]: 0.8955
Chip Fluorescence (mean) [4]: -0.3348
Sequence: HVSSSPDVTLTPTQHR [SeqRBMlowT_4550]

Chip Fluorescence (max) [5]: 1.646
Chip Fluorescence (mean) [6]: -0.634
Sequence: HVSSSPRIAITPTQHR [SeqRBMlowT_8885]

Chip Fluorescence (max) [7]: 2.778
Chip Fluorescence (mean) [8]: 0.8662
Sequence: HVSSSPRITITPTQHR [SeqRBMlowT_743]

Chip Fluorescence (max) [9]: 1.1425
Chip Fluorescence (mean) [10]: -0.2145
Sequence: HVSSSSDITITPTQHR [SeqRBMlowT_2715]

Chip Fluorescence (max) [5]: 1.415
Chip Fluorescence (mean) [6]: 0.2946
Sequence: HVSSSVDIVITPTQHR [SeqRBMlowT_8839]

Chip Fluorescence (max) [11]: 8.925
Chip Fluorescence (mean) [12]: 1.809
Sequence: IKLIIWNHNISNHGTY [SeqRBM_5872]

Chip Fluorescence (max) [3]: 0.8506
Chip Fluorescence (mean) [4]: -0.3833
Sequence: KAYIMLFFTFIDGGQK [SeqRBM_3979]

Chip Fluorescence (max) [7]: 3.298
Chip Fluorescence (mean) [8]: 1.4015
Sequence: KAYINPFMQFIDGGRR [SeqRBMlowT_549]

Chip Fluorescence (max) [11]: 4.329
Chip Fluorescence (mean) [12]: 0.4696
Sequence: KAYINPFMTFIEGGRK [SeqRBMlowT_3627]

Chip Fluorescence (max) [7]: 2.964
Chip Fluorescence (mean) [8]: 0.9132
Sequence: KAYINPSMVFIEGGRR [SeqRBM_7863]

Chip Fluorescence (max) [5]: 1.6
Chip Fluorescence (mean) [6]: -0.3289
Sequence: KAYMCPAVSFQDGGRR [SeqRBMlowT_4017]

Chip Fluorescence (max) [7]: 2.8656
Chip Fluorescence (mean) [8]: 1.3266
Sequence: KAYMCPFMQFIDGGRK [SeqRBMlowT_522]

Chip Fluorescence (max) [3]: 0.9778
Chip Fluorescence (mean) [4]: -1.603
Sequence: KAYMCPFMQFIEGGRR [SeqRBMlowT_535]

Chip Fluorescence (max) [3]: 0.9778
Chip Fluorescence (mean) [4]: -1.603
Sequence: KAYMCPFMQFIEGGRR [SeqSFB3_Pan_troglodytes]

Chip Fluorescence (max) [3]: 0.6726
Chip Fluorescence (mean) [4]: 0.4462
Sequence: KAYMCPFMQFQDGGRR [SeqRBMlowT_520]

Chip Fluorescence (max) [7]: 2.726
Chip Fluorescence (mean) [8]: 0.3874
Sequence: KAYMCPFMSFIDGGQR [SeqRBMlowT_3665]

Chip Fluorescence (max) [9]: 1.2267
Chip Fluorescence (mean) [10]: -0.003433
Sequence: KAYMCPSMQFIDGGRR [SeqRBMlowT_9264]

Chip Fluorescence (max) [7]: 3.135
Chip Fluorescence (mean) [8]: 0.405
Sequence: KAYMCPYMDFQDGGRR [SeqRBM_4270]

Chip Fluorescence (max) [5]: 1.462
Chip Fluorescence (mean) [6]: 1.063
Sequence: KAYMCPYMQFIDGGRK [SeqRBMlowT_9280]

Chip Fluorescence (max) [7]: 2.957
Chip Fluorescence (mean) [8]: -0.3215
Sequence: KAYMCSFMRFIEGGRR [SeqRBMlowT_3379]

Chip Fluorescence (max) [11]: 4.3098
Chip Fluorescence (mean) [12]: 0.3269
Sequence: KAYMNPFMQFIDGGRR [SeqRBMlowT_560]

Chip Fluorescence (max) [9]: 1.204
Chip Fluorescence (mean) [10]: -0.1516
Sequence: KAYMNPYMQFIDGGRR [SeqRBMlowT_4720]

Chip Fluorescence (max) [9]: 1.252
Chip Fluorescence (mean) [10]: -0.2059
Sequence: KAYMNPYVQFIDGGRR [SeqRBMlowT_9255]

Chip Fluorescence (max) [5]: 1.597
Chip Fluorescence (mean) [6]: -0.04342
Sequence: KAYMSPFMQFVDAGRR [SeqSFB3_Nasonia_vitripennis]

Chip Fluorescence (max) [7]: 2.798
Chip Fluorescence (mean) [8]: 1.173
Sequence: KAYMSPFMSFIDGGRR [SeqRBMlowT_6614]

Chip Fluorescence (max) [3]: 0.8078
Chip Fluorescence (mean) [4]: -0.09052
Sequence: KDKAGKRSHLKGHSES [Seqshuffled_5410]

Sequence: KDMLIPRPSSQDSGAY [SeqRBM_5587]
Chip Fluorescence (max) [5]: 1.626
Chip Fluorescence (mean) [6]: -0.4019

Chip Fluorescence (max) [3]: 0.8382
Chip Fluorescence (mean) [4]: -0.2608
Sequence: KEGPISSTVVMEALSI [SeqRBM_843]

Chip Fluorescence (max) [11]: 3.906
Chip Fluorescence (mean) [12]: 0.5831
Sequence: KERDVNYYIIHPVGSA [Seqshuffled_9799]

Chip Fluorescence (max) [3]: 0.7156
Chip Fluorescence (mean) [4]: -0.9321
Sequence: KFPGAEFLPQTLTPPP [Seqshuffled_9792]

Sequence: KGCAAPAISIDFAPIN [SeqRBM_541]
Chip Fluorescence (max) [11]: 6.269
Chip Fluorescence (mean) [12]: 0.8691

Chip Fluorescence (max) [3]: 0.7747
Chip Fluorescence (mean) [4]: -0.7747
Sequence: KHATSPRINITQTSTL [SeqRBM_2048]

Chip Fluorescence (max) [11]: 11.1628
Chip Fluorescence (mean) [12]: 2.896
Sequence: KHLDVPDIIITPPTPT [SeqC16orf74_Pan_troglodytes]

Chip Fluorescence (max) [3]: 0.9085
Chip Fluorescence (mean) [4]: -0.7336
Sequence: KKDVPPKILIEPPREF [SeqRBM_6642]

Chip Fluorescence (max) [5]: 1.339
Chip Fluorescence (mean) [6]: -0.05324
Sequence: KKMAPPAINIDFAPTN [SeqRBMlowT_341]

Chip Fluorescence (max) [5]: 1.579
Chip Fluorescence (mean) [6]: 0.1538
Sequence: KKMAPPCINIDFAPEN [SeqRBMlowT_2474]

Chip Fluorescence (max) [1]: -0.3563
Chip Fluorescence (mean) [2]: -3.542
Sequence: KKMAPPCINIDFAPTN [SeqRBMlowT_322]

Chip Fluorescence (max) [11]: 3.662
Chip Fluorescence (mean) [12]: 0.8549
Sequence: KKMAPPCINIDPAPEN [SeqRBMlowT_2431]

Chip Fluorescence (max) [5]: 1.659
Chip Fluorescence (mean) [6]: -0.3088
Sequence: KKMAPPCINIDPAPTN [SeqRBMlowT_309]

Chip Fluorescence (max) [1]: 0.2085
Chip Fluorescence (mean) [2]: -1.259
Sequence: KKMAPPCINIDPAPTS [SeqRBMlowT_307]

Chip Fluorescence (max) [3]: 0.441
Chip Fluorescence (mean) [4]: -1.335
Sequence: KKMAPPCISVHPPEED [SeqRBMlowT_5025]

Chip Fluorescence (max) [7]: 2.64
Chip Fluorescence (mean) [8]: 0.293
Sequence: KKMSPPCIDVHPLDSA [SeqRBM_2282]

Chip Fluorescence (max) [9]: 1.08
Chip Fluorescence (mean) [10]: -0.8311
Sequence: KKMSPPCINIDPAPEN [SeqRBMlowT_2410]

Chip Fluorescence (max) [9]: 0.9886
Chip Fluorescence (mean) [10]: -0.8988
Sequence: KKMSPPCINIDPAPTN [SeqRBMlowT_1811]

Chip Fluorescence (max) [1]: 0.1833
Chip Fluorescence (mean) [2]: -1.098
Sequence: KKMSPPCISIDPAPNN [SeqRBMlowT_7656]

Chip Fluorescence (max) [9]: 1.26
Chip Fluorescence (mean) [10]: -0.004401
Sequence: KKMSPPCISVDPPDEL [SeqCACNA1H_Nothobranchius_rachovii]

Chip Fluorescence (max) [11]: 6.125
Chip Fluorescence (mean) [12]: 1.9169
Sequence: KKMSPPCIVVSPPEED [SeqRBMlowT_306]

Chip Fluorescence (max) [9]: 1.232
Chip Fluorescence (mean) [10]: -0.1213
Sequence: KMAKFLINLSAEKSVM [Seqrandom_9965]

Chip Fluorescence (max) [3]: 0.8784
Chip Fluorescence (mean) [4]: -0.3746
Sequence: KPFECPSIQITSISPN [SeqNFATC3_Homo_sapiens]

Chip Fluorescence (max) [1]: -0.4908
Chip Fluorescence (mean) [2]: -3.72
Sequence: KQMAPPAINIDFAPTN [SeqRBMlowT_1821]

Chip Fluorescence (max) [11]: 24.574
Chip Fluorescence (mean) [12]: 3.689
Sequence: KRMEPIAIIITDTEIS [SeqAKAP79_Pan_troglodytes]

Chip Fluorescence (max) [5]: 1.674
Chip Fluorescence (mean) [6]: -0.01942
Sequence: KRYWKPQFKFGTQVSE [SeqRBM_7919]

Chip Fluorescence (max) [5]: 1.362
Chip Fluorescence (mean) [6]: 0.2601
Sequence: KSKAAPSIVIHIPEEA [SeqRBM_8661]

Chip Fluorescence (max) [1]: 0.2205
Chip Fluorescence (mean) [2]: -0.7902
Sequence: KSKLIPKLSFQSPVHH [SeqRBMlowT_3425]

Chip Fluorescence (max) [1]: -0.5565
Chip Fluorescence (mean) [2]: -1.425
Sequence: KSKLIPKLSIQSPVHH [SeqRBMlowT_830]

Chip Fluorescence (max) [9]: 1.129
Chip Fluorescence (mean) [10]: -1.294
Sequence: KSKLIPKLSIQSPVRH [SeqJHY_Macaca_mulatta]

Chip Fluorescence (max) [7]: 2.868
Chip Fluorescence (mean) [8]: 0.2995
Sequence: KSKSIPKISIQSPVHH [SeqRBMlowT_1684]

Chip Fluorescence (max) [9]: 1.0328
Chip Fluorescence (mean) [10]: -0.6623
Sequence: KSRALSKVVINEPLTI [SeqTRESK_Leptosomus_discolor]

Chip Fluorescence (max) [11]: 3.993
Chip Fluorescence (mean) [12]: 1.569
Sequence: KSSSSPSASINVPQSN [SeqRBM_1871]

Chip Fluorescence (max) [3]: 0.7078
Chip Fluorescence (mean) [4]: 0.0887
Sequence: KTGMATDMQFNPIEQH [Seqshuffled_2687]

Chip Fluorescence (max) [5]: 1.835
Chip Fluorescence (mean) [6]: 0.723
Sequence: KVMAVPRISRSPTQVL [SeqRBM_6937]
